Source: patent publication US20130096067A1, “DROSOPHILA TUMOR STEM CELL MODEL AND USES THEREOF” (priority 2011, published 2013)
Like-named read-outs stand apart in the source and are kept apart here. Square brackets hold non-standard residues; d marks the D form. Peptide text beside a SMILES is read from it. Phe(ol) = N[C@H](CO)Cc1ccccc1; Aib = CC(C)(N)C(=O)O

Tested on: Raf-1^gof intestinal tumors
Conditions: for Log2 (fold) (luciferase activity, log2 of the fold difference relative to DMSO controls) / Fold (luciferase activity, fold difference relative to DMSO controls): screen of 480 ICCB compounds in vials, compounds fed to flies with one-day old Raf-1^gof tumors, esg-Gal4 luciferase
[1] = assessed three days later, averaged from multiple wells
[2] = ICCB compounds fed in vials to flies with one-day old Raf-1^gof tumors, assessed three days later
[3] = ICCB compounds fed in vials to flies with one-day old Raf-1^gof tumors, assessed three days later, averaged from multiple wells
For Fold (luciferase activity relative to DMSO controls) in this document: test concentration or dose not given here.
For Fold (luciferase activity, fold difference relative to DMSO controls) in this document: test concentration or dose not given here.
For Log2 (fold) (luciferase activity, log2 of the fold difference relative to DMSO controls) in this document: test concentration or dose not given here.
For Log2 (fold) of luciferase activity relative to DMSO controls in this document: test concentration or dose not given here.

| Compound | Log2 (fold) (luciferase activity, log2 of the fold difference relative to DMSO controls) (assessed three days later) | Fold (luciferase activity, fold difference relative to DMSO controls) [1] | Log2 (fold) of luciferase activity relative to DMSO controls [2] | Fold (luciferase activity relative to DMSO controls) [3] | also measured |
| --- | --- | --- | --- | --- | --- |
| CC(=O)NC(C)(C)C(=O)N1CCC[C@H]1C(=O)NC(C)(C)C(=O)N[C@@H](C)C(=O)NC(C)(C)C(=O)N[C@@H](C)C(=O)N[C@@H](CCC(N)=O)C(=O)NC(C)(C)C(=O)N[C@H](C(=O)NC(C)(C)C(=O)NCC(=O)N[C@@H](CC(C)C)C(=O)NC(C)(C)C(=O)N1CCC[C@H]1C(=O)N[C@H](C(=O)NC(C)(C)C(=O)NC(C)(C)C(=O)N[C@@H](CCC(=O)O)C(=O)N[C@@H](CCC(N)=O)C(=O)N[C@H](CO)Cc1ccccc1)C(C)C)C(C)C [alamethicin, reference compound] (Ac-[Aib]P[Aib]A[Aib]AQ[Aib]V[Aib]GL[Aib]PV[Aib][Aib]EQ[Phe(ol)]) | −1.167 | 0.445 | – | – | Fold (Table 3 summary of hits, Screen ICCB, luciferase relative to DMSO, fed three consecutive days in vials): 0.445 fold |
| CC1=C(/C=C/C(C)=C/C=C/C(C)=C/C(=O)O)C(C)(C)CCC1 [RETINOIC ACID, ALL TRANS] | – | – | −0.162 | 0.894 fold | – |
| C[C@H](CCC(=O)O)C[C@H](C)C[C@H](C)C(=O)/C=C(\O)[C@H](C)C[C@H](C)C/C=C/[C@@H](C)[C@@H](O)[C@@H](C)[C@@H](O)C[C@@H]1CC[C@@](C)([C@H]2CC[C@@](C)([C@@H](C)O)O2)O1 [ionomycin] | −0.591 | 0.664 | – | – | – |
| Ro 31-8220 | – | – | 0.158 | 1.116 fold | – |
| O=S(=O)(c1cccc2cnccc12)N1CCCNCC1 [HA1077] | −0.326 | 0.798 | – | – | – |
| CCCCC[C@@H](/C=C/C=C\C/C=C\C/C=C\CCCC(=O)O)OO [15(S)-HPETE] | – | – | 0.361 | 1.285 fold | – |
| COc1cc(/C=C/C(=O)CC(=O)/C=C/c2ccc(O)c(OC)c2)ccc1O [Curcumin] | – | – | 0.112 | 1.081 fold | – |
| OC[C@H]1NC[C@@H](O)[C@@H](O)[C@@H]1O [deoxymannojirimycin(1)] | – | – | −0.125 | 0.917 fold | – |
| CCOC(=O)C1=C(C)NC(=S)NC1c1cccc(O)c1 (centres unmarked) [Monastrol] | −0.607 | 0.656 | – | – | – |
| NC(=NC(=O)c1nc(Cl)c(N)nc1N)NCc1ccc(Cl)c(Cl)c1 [DICHLOROBENZAMIL] | – | – | −0.116 | 0.923 fold | – |
| CCCCC/C=C\C/C=C\C/C=C\C/C=C\CCCC(=O)N[C@H](C)CO [(R)-METHANANDAMIDE] | – | – | 0.068 | 1.049 fold | – |
| CCCCCCCCCCCCC/C=C/[C@@H](O)[C@H](CO)NC(C)=O [C2 CERAMIDE] | −0.493 | 0.711 | – | – | – |
| KN-62 | −0.513 | 0.701 | – | – | – |
| CC[N+](CC)(CC)CC(=O)Nc1c(C)cccc1C [QX-314] | – | – | 0.146 | 1.107 fold | – |
| CN1C(=O)[C@]23CC4=CC=C[C@H](O)[C@H]4N2C(=O)[C@@]1(CO)SS3 [Gliotoxin] | −0.478 | 0.718 | – | – | – |
| C=C1C(=O)O[C@@H]2C[C@@H](C)[C@@H]3C=CC(=O)[C@@]3(C)[C@@H](O)[C@H]12 [Helenalin] | – | – | – | – | Fold (luciferase activity relative to DMSO controls) (in vivo): 1.112 fold; Log2 (fold) of luciferase activity relative to DMSO controls (in vivo): 0.154 |

| Compound | Log2 (fold) (luciferase activity, log2 of the fold difference relative to DMSO controls) (assessed three days later) | Fold (luciferase activity, fold difference relative to DMSO controls) [1] | Log2 (fold) of luciferase activity relative to DMSO controls [2] | Fold (luciferase activity relative to DMSO controls) [3] | also measured |
| --- | --- | --- | --- | --- | --- |
| CCCCCCCC/C=C\CCCCCCCC(N)=O [9,10-OCTADECENOAMIDE] | −0.454 | 0.730 | – | – | – |
| CC(=O)N[C@@H](CSCC=C(C)CCC=C(C)CCC=C(C)C)C(=O)O [acetyl (N)-s-farnesyl-1-cysteine] | – | – | −0.036 | 0.975 fold | – |
| CCCCCCCCCCCCC/C=C/[C@@H](O)[C@H](CO)N(C)C [N,N-DIMETHYLSPHINGOSINE] | −0.487 | 0.713 | – | – | – |
| CCCCC[C@H](O)/C=C/[C@@H]1[C@@H](C/C=C\CCCC(=O)O)[C@@H](O)C[C@@H]1O [9a,11b-PROSTAGLANDIN F2] | −0.294 | 0.815 | – | – | – |
| CCCCC[C@H](O)/C=C/[C@@H]1[C@H]2C/C(=C/CCCC(=O)[O-])O[C@H]2C[C@H]1O.[Na+] [PROSTAGLANDIN I2 Na] | −0.244 | 0.844 | – | – | – |
| CCCCCCCCCCCCCCCCCCOCC(COP(=O)([O-])OCC[N+](C)(C)C)OC (centres unmarked) [1-OCTADECYL-2-METHYLGLYCERO-3 PC] | −0.538 | 0.689 | – | – | – |
| CCC(C)[C@H](NS(=O)(=O)c1cccc2ccccc12)C(=O)N[C@H](C=O)Cc1c[nH]c2ccccc12 (stereo partly drawn) [NapSul-Ile-Trp-CHO] | −0.554 | 0.681 | – | – | – |
| CCCCCCCCCCCCCCCCOCC(CO)OC (centres unmarked) [1-HEXADECYL-2-O-METHYL-GLYCEROL] | −0.219 | 0.859 | – | – | – |
| O[C@H]1[C@H](O)[C@@H](O)CN2CC[C@H](O)[C@H]12 [castanospermine] | −0.351 | 0.784 | – | – | – |
| CCCCCCCCCCCCCCCCCCOC[C@H](COP(=O)([O-])OCC[N+](C)(C)C)OC(C)=O [PAF C18] | −0.455 | 0.729 | – | – | – |
| CC(=O)OCOC(=O)CN(CC(=O)OCOC(C)=O)c1ccccc1OCCOc1ccccc1N(CC(=O)OCOC(C)=O)CC(=O)OCOC(C)=O [BAPTA-AM] | −0.242 | 0.846 | – | – | – |
| CCCC[C@@H](C)/C=C(C)/C=C(\C)C(=O)NC1=C[C@@](O)(/C=C/C=C/C=C/C(=O)NC2=C(O)CCC2=O)[C@@H]2O[C@@H]2C1=O [manumycin A] | −0.233 | 0.851 | – | – | – |
| COc1ccc(CCN(C)CCc2ccc(OC)c(OC)c2)cc1OC [YS035] | – | – | −0.152 | 0.900 fold | – |
| O=S(=O)(c1cccc2c(I)cccc12)N1CCCNCC1 [ML7] | – | – | 0.192 | 1.143 fold | – |
| COc1cccc(-c2cc(=O)c3ccccc3o2)c1N [PD 98059] | −0.338 | 0.791 | – | – | – |
| COc1c(C=O)c(O)cc2c1C(=O)c1ccccc1C2=O [damnacanthal] | −0.482 | 0.716 | – | – | – |
